In patent publication US8354402B2, “Polyarylcarboxamides useful as lipid lowering agents” (Janssen Pharmaceutica N.V., priority 2000, dated 2013):
Structures can show the parent of a compound that is named as a salt.

Tested on: ApoB secretion, HepG2 cells
Assay: Quantification of the secretion of ApoB (HepG2 cells, immunoprecipitation, scintillation counting)
Assay type: cell-based
Conditions: 24 hours of incubation; for IC50: Homo sapiens
Procedure: C.1. Quantification of the Secretion of ApoB
HepG2 cells were cultured in 24-well plates in Minimal Essential Medium Rega 3 containing 10% fetal calf serum. Rega 3 has the following composition: CaCl2 (264 μg/ml), KCl (400 μg/ml), MgSO4.7H2O (200 μg/ml), NaCl (6800 μg/ml), NaHCO3 (850 μg/ml), NaH2PO4.H2O (158 μg/ml), D-glucose (1000 μg/ml), phenol red (10 μg/ml), L-alanine (8.9 μg/ml), L-arginine HCl (12 μg/ml), L-asparagine.H2O (15 μg/ml), L-aspartic acid (13.3 μg/ml), L-cystine (24 μg/ml), L-glutamic acid (14.7 μg/ml), glycine (7.5 μg/ml), L-histidine.HCl .H2O (42 μg/ml), L-isoleucine (52 μg/ml), L-leucine (52 μg/ml), L-lysine.HCl (72.5 μg/ml), L-methionine (15 μg/ml), L-phenylalanine (32 μg/ml), L-proline (11.5 μg/ml), L-serine (10.5 μg/ml), L-threonine (48 μg/ml), L-tryptophan (10 μg/ml), L-tyrosine (36 μg/ml), L-valine (46 μg/ml), D-Ca pantothenate (1 μg/ml), choline chloride (1 μg/ml), folic acid (1 μg/ml), 1-enositol (2 μg/ml), nicotinamide (1 μg/ml), pyridoxal HCl (1 μg/ml), riboflavin (0.1 μg/ml) and thiamine HCl (1 μg/ml).
At 70% confluency, the medium was changed and the test compound or carrier (dimethylsulfoxide, 0.4% final concentration) was added. After 24 hours of incubation, the medium was transferred to Eppendorf tubes and cleared by centrifugation. A sheep antibody directed against either apo B was added to the supernatant and the mixture was kept at 8° C. for 24 hours. Then, rabbit anti-sheep antibody was added and the immune complex was allowed to precipitate for 24 hours at 8° C. The immunoprecipitate was pelleted by centrifugation for 25 minutes at 1320 g and washed twice with a buffer containing 40 mM 4-morpholinepropanesulfonic acid, 40 mM NaH2PO4, 100 mM NaF, 0.2 mM dithiothreitol, 5 mM ethylenediamine tetraacetic acid, 5 mM ethylenebis (oxyethylenenitrilo) tetraacetic acid, 1% Triton-X-100, 0.5% sodium deoxycholate, 0.1% sodium dodecylsulphate, 0.2 μM leupeptin and 0.2 μM phenylmethylsulphonylfluoride. Radioactivity in the pellet was quantified by liquid scintillation counting.
Resulting IC50 values are enumerated in Table C.1 for a number of compounds No. 1 to No. 123.

IC50 (HepG2, 24 h) | Compound | other results
≥ 3000 nM | O=C(Nc1ccc(N2CCC(C(C(=O)NCc3ccccc3)c3ccccc3)CC2)cc1)c1cccc2c1Cc1ccccc1-2 (stereo not drawn) [Co. No. 4] | –
158 nM | O=C(Nc1ccc(N2CCC(C(C(=O)NCc3ccccc3)c3ccccc3)CC2)cc1)c1ccccc1C(=O)c1ccccc1 (stereo not drawn) [Co. No. 5] | –
60.1 nM | O=C(Nc1ccc(N2CCC(C(C(=O)NCc3ccccc3)c3ccccc3)CC2)cc1)c1ccccc1OCc1ccccc1 (stereo not drawn) [Co. No. 8] | –
221 nM | O=C(Nc1ccc(N2CCC(C(C(=O)NCc3ccccc3)c3ccccc3)CC2)cc1)c1ccccc1Oc1ccccc1 (stereo not drawn) [Co. No. 9] | –
231 nM | CCCNC(=O)C(c1ccccc1)C1CCN(c2ccc(NC(=O)c3cccc4c3-c3ccccc3C4)cc2)CC1 (stereo not drawn) [Co. No. 12] | –
≤ 30 nM | CCCNC(=O)C(c1ccccc1)C1CCN(c2ccc(NC(=O)c3ccccc3-c3ccccc3)cc2)CC1 (stereo not drawn) [Co. No. 13] | –
≥ 3000 nM | CCCNC(=O)C(c1ccccc1)C1CCN(c2ccc(NC(=O)c3cccc4c3Cc3ccccc3-4)cc2)CC1 (stereo not drawn) [Co. No. 14] | –
205 nM | CCCNC(=O)C(c1ccccc1)C1CCN(c2ccc(NC(=O)c3ccccc3C(=O)c3ccccc3)cc2)CC1 (stereo not drawn) [Co. No. 15] | –
199 nM | CCCNC(=O)C(c1ccccc1)C1CCN(c2ccc(NC(=O)c3ccccc3COc3ccccc3)cc2)CC1 (stereo not drawn) [Co. No. 17] | –
206 nM | CCCNC(=O)C(c1ccccc1)C1CCN(c2ccc(NC(=O)c3ccccc3OCc3ccccc3)cc2)CC1 (stereo not drawn) [Co. No. 18] | –
264 nM | CCCNC(=O)C(c1ccccc1)C1CCN(c2ccc(NC(=O)c3ccccc3Oc3ccccc3)cc2)CC1 (stereo not drawn) [Co. No. 19] | –
989 nM | CCCNC(=O)C(c1ccccc1)C1CCN(c2ccc(NC(=O)c3ccccc3Cc3ccccc3)cc2)CC1 (stereo not drawn) [Co. No. 20] | –
245 nM | CC(C)NC(=O)C(c1ccccc1)C1CCN(c2ccc(NC(=O)c3cccc4c3-c3ccccc3C4)cc2)CC1 (stereo not drawn) [Co. No. 21] | –
104 nM | CC(C)NC(=O)C(c1ccccc1)C1CCN(c2ccc(NC(=O)c3ccccc3-c3ccccc3)cc2)CC1 (stereo not drawn) [Co. No. 22] | –
≥ 3000 nM | CC(C)NC(=O)C(c1ccccc1)C1CCN(c2ccc(NC(=O)c3cccc4c3Cc3ccccc3-4)cc2)CC1 (stereo not drawn) [Co. No. 23] | –
847 nM | CC(C)NC(=O)C(c1ccccc1)C1CCN(c2ccc(NC(=O)c3ccccc3CSc3ccccc3)cc2)CC1 (stereo not drawn) [Co. No. 24] | –
287 nM | CC(C)NC(=O)C(c1ccccc1)C1CCN(c2ccc(NC(=O)c3ccccc3COc3ccccc3)cc2)CC1 (stereo not drawn) [Co. No. 25] | –
275 nM | CC(C)NC(=O)C(c1ccccc1)C1CCN(c2ccc(NC(=O)c3ccccc3OCc3ccccc3)cc2)CC1 (stereo not drawn) [Co. No. 26] | –
1300 nM | CC(C)NC(=O)C(c1ccccc1)C1CCN(c2ccc(NC(=O)c3ccccc3Oc3ccccc3)cc2)CC1 (stereo not drawn) [Co. No. 27] | –
767 nM | CC(C)NC(=O)C(c1ccccc1)C1CCN(c2ccc(NC(=O)c3ccccc3Cc3ccccc3)cc2)CC1 (stereo not drawn) [Co. No. 28] | –
≥ 3000 nM | O=C(Nc1ccc(N2CCC(C(C(=O)Nc3ccccc3)c3ccccc3)CC2)cc1)c1cccc2c1Cc1ccccc1-2 (stereo not drawn) [Co. No. 29] | –
165 nM | O=C(Nc1ccc(N2CCC(C(C(=O)Nc3ccccc3)c3ccccc3)CC2)cc1)c1ccccc1-c1ccccc1 (stereo not drawn) [Co. No. 30] | –
1280 nM | O=C(Nc1ccc(N2CCC(C(C(=O)Nc3ccccc3)c3ccccc3)CC2)cc1)c1ccccc1CSc1ccccc1 (stereo not drawn) [Co. No. 31] | –
2390 nM | O=C(Nc1ccc(N2CCC(C(C(=O)Nc3ccccc3)c3ccccc3)CC2)cc1)c1ccccc1COc1ccccc1 (stereo not drawn) [Co. No. 32] | –
≥ 3000 nM | O=C(Nc1ccc(N2CCC(C(C(=O)Nc3ccccc3)c3ccccc3)CC2)cc1)c1ccccc1OCc1ccccc1 (stereo not drawn) [Co. No. 33] | –
1550 nM | O=C(Nc1ccc(N2CCC(C(C(=O)Nc3ccccc3)c3ccccc3)CC2)cc1)c1ccccc1Oc1ccccc1 (stereo not drawn) [Co. No. 34] | –

IC50 (HepG2, 24 h) | Compound | other results
≥ 3000 nM | O=C(Nc1ccc(N2CCC(C(C(=O)Nc3ccccc3)c3ccccc3)CC2)cc1)c1ccccc1Cc1ccccc1 (stereo not drawn) [Co. No. 35] | –
≤ 30 nM | O=C(Nc1ccc(N2CCC(C(C(=O)Nc3ccccc3)c3ccccc3)CC2)cc1)c1ccccc1-c1ccc(C(F)(F)F)cc1 (stereo not drawn) [Co. No. 36] | –
– | COC(=O)C(c1ccccc1)C1CCN(c2ccc(NC(=O)c3ccccc3-c3ccc(C(F)(F)F)cc3)cc2)CC1 (stereo not drawn) [Co. No. 37, methyl α-phenyl-1-[4-[[[4′-(trifluoromethyl)[1,1′-biphenyl]-2-yl]carbonyl]amino]phenyl]-4-piperidineacetate trifluoroacetate (1:1)] | pIC50 (listed as 37): 7.507
– | CCCNC(=O)C(c1ccccc1)C1CCN(c2ccc(NC(=O)c3ccccc3-c3ccc(C(F)(F)F)cc3)cc2)CC1 (stereo not drawn) [Co. No. 38, N-[4-[4-[2-oxo-1-phenyl-2-(propylamino)ethyl]-1-piperidinyl]phenyl]-4′-(trifluoromethyl)-[1,1′-biphenyl]-2-carboxamide trifluoroacetate (1:1)] | IC50: 6.62 nM
≥ 3000 nM | CCCNC(=O)C(c1ccccc1)C1CCN(c2ccc(NC(=O)c3ccccc3-c3cccc4ccccc34)cc2)CC1 (stereo not drawn) [Co. No. 42] | –
1770 nM | CCCNC(=O)C(c1ccccc1)C1CCN(c2ccc(NC(=O)c3ccccc3-c3ccccc3OC)cc2)CC1 (stereo not drawn) [Co. No. 43] | –
1040 nM | CCCNC(=O)C(c1ccccc1)C1CCN(c2ccc(NC(=O)c3ccccc3-c3ccc(F)cc3)cc2)CC1 (stereo not drawn) [Co. No. 44] | –
≥ 3000 nM | CCCNC(=O)C(c1ccccc1)C1CCN(c2ccc(NC(=O)c3ccccc3-c3ccccc3Cl)cc2)CC1 (stereo not drawn) [Co. No. 45] | –
461 nM | CCCNC(=O)C(c1ccccc1)C1CCN(c2ccc(NC(=O)c3ccccc3-c3ccc(OC)cc3)cc2)CC1 (stereo not drawn) [Co. No. 46] | –
199 nM | CCCNC(=O)C(c1ccccc1)C1CCN(c2ccc(NC(=O)c3ccccc3-c3ccc4ccccc4c3)cc2)CC1 (stereo not drawn) [Co. No. 47] | –
634 nM | CCCNC(=O)C(c1ccccc1)C1CCN(c2ccc(NC(=O)c3ccccc3-c3cccc(C(F)(F)F)c3)cc2)CC1 (stereo not drawn) [Co. No. 48] | –
236 nM | CCNC(=O)C(c1ccccc1)C1CCN(c2ccc(NC(=O)c3ccccc3-c3cc(Cl)cc(Cl)c3)cc2)CC1 (stereo not drawn) [Co. No. 49] | –
93.8 nM | O=C(Nc1ccc(N2CCC(C(C(=O)NCc3ccccc3)c3ccccc3)CC2)cc1)c1ccccc1-c1cc(Cl)cc(Cl)c1 (stereo not drawn) [Co. No. 50] | –
68.7 nM | Cc1ccccc1-c1ccccc1C(=O)Nc1ccc(N2CCC(C(C(=O)NCc3ccccc3)c3ccccc3)CC2)cc1 (stereo not drawn) [Co. No. 51] | –
1.84 nM | CC(C)(C)c1ccc(-c2ccccc2C(=O)Nc2ccc(N3CCC(C(C(=O)NCc4ccccc4)c4ccccc4)CC3)cc2)cc1 (stereo not drawn) [Co. No. 53] | –
≤ 30 nM | CC(C)NC(=O)C(c1ccccc1)N1CCN(c2ccc(NC(=O)c3ccccc3-c3ccc(C(F)(F)F)cc3)cc2)CC1 (stereo not drawn) [Co. No. 56] | –
≤ 30 nM | O=C(Nc1ccc(N2CCN(C(C(=O)NCc3cccnc3)c3ccccc3)CC2)cc1)c1ccccc1-c1ccc(C(F)(F)F)cc1 (stereo not drawn) [Co. No. 59] | –
122 nM | CCCNC(=O)C(CN1CCN(c2ccc(NC(=O)c3ccccc3-c3ccc(C(F)(F)F)cc3)cc2)CC1)c1ccccc1 (stereo not drawn) [Co. No. 63, N-[4-[4-[3-oxo-2-phenyl-3-(propylamino)propyl]-1-piperazinyl]phenyl]-4′-(trifluoromethyl)-[1,1′-biphenyl]-2-carboxamide] | –
159 nM | CCCCNC(=O)C(CN1CCN(c2ccc(NC(=O)c3ccccc3-c3ccc(C(F)(F)F)cc3)cc2)CC1)c1ccccc1 (stereo not drawn) [Co. No. 64] | –
240 nM | CCCCCNC(=O)C(CN1CCN(c2ccc(NC(=O)c3ccccc3-c3ccc(C(F)(F)F)cc3)cc2)CC1)c1ccccc1 (stereo not drawn) [Co. No. 65] | –
79.6 nM | O=C(Nc1ccc(N2CCN(CC(C(=O)NCC(F)(F)F)c3ccccc3)CC2)cc1)c1ccccc1-c1ccc(C(F)(F)F)cc1 (stereo not drawn) [Co. No. 66] | –
247 nM | O=C(Nc1ccc(N2CCN(CC(C(=O)NCc3ccccc3)c3ccccc3)CC2)cc1)c1ccccc1-c1ccc(C(F)(F)F)cc1 (stereo not drawn) [Co. No. 67] | –
≤ 30 nM | CCCNC(=O)C(c1ccccc1)C1CCN(c2ccc(NC(=O)c3ccccc3-c3ccc(Cl)cc3)cc2)CC1 (stereo not drawn) [Co. No. 68] | –
8.89 nM | CCNC(=O)C(c1ccccc1)N1CCC(c2ccc(NC(=O)c3ccccc3-c3ccc(C(F)(F)F)cc3)cc2)CC1 (stereo not drawn) [Co. No. 69, N-[4-[1-[2-(ethylamino)-2-oxo-1-phenylethyl]-4-piperidinyl]phenyl]-4′-(trifluoromethyl)-[1,1′-biphenyl]-2-carboxamide] | –
≤ 30 nM | CCCNC(=O)C(c1ccccc1)N1CCC(c2ccc(NC(=O)c3ccccc3-c3ccc(C(F)(F)F)cc3)cc2)CC1 (stereo not drawn) [Co. No. 70] | –
